According to patent US20190269132A1 (ROHM AND HAAS COMPANY, priority 2016, published 2019):

Test system: Chlorella sp. ATCC 7516
Experiment: Algal efficacy testing of dry paint films (modified ASTM 5589, 6-well plates)
Type: cell-based
Experimental: These paints were then diluted with a biocide free acrylic/silicone based paint and mixed to prepare targeted concentrations of biocide combinations for the testing. The total biocides concentrations obtained were 125, 250, 500, 1000, 2000 and 5000 ppm. After biocides addition or dilution, the paints were mixed 90 seconds with the horse power shaker (AXEL 75M3372/Agitateur SO-10MI) until uniformity was achieved. […] After one day, the paints were applied to Schleicher & Schuell filter paper at 280 μm wet film thickness and dried for 3 days at room temperature avoiding direct exposure to sunlight. Square discs (1.8 cm×1.8 cm) were cut out from each panel and were used as the substrate for algal efficacy tests. This sample size allowed for an agar border when the sample disc was placed into the well of the test plate.
Algal efficacy was tested according to modified ASTM 5589 which is a standard accelerated test method for determining resistance of various coatings (including paints) to algal defacement. To accommodate for high-throughput screening, this method was scaled down from petri plates to 6-well plates. Bold Modified Basal Freshwater Nutrient Solution was used as growth medium for the algal culture and Bold's agar was used for the efficacy testing. A single coupon was placed with a pair of sterile forceps at the center of the agar plug (on top) with the painted surface facing upwards. The algal inoculum was prepared by diluting an exponentially growing culture of Chlorella sp. to 1×10^6 cfu/ml.
Each well that contains a tested coupon was inoculated with 1750 μl of algal suspension (1×10^6 cfu/ml) making sure that the whole surface (paint film as well as the agar surrounding it) was evenly covered. The plates were incubated at room temp (21° C.-25° C.) with cyclic exposure to 14 hours fluorescent light followed by 10 hours darkness, for a period of three weeks.
At the end of the incubation period the samples were scored for percent inhibition regarding color intensity compared to the blank sample
The SI is calculated based on F. C. Kull et. […]

SMILES: O=c1[nH]sc2ccccc12 [BIT, 1,2-benzisothiazol-3(2H)-one]
- inhibition at 5000 ppm (504 h, Chlorella, total conc 5000 ppm in paint, three weeks, colour intensity vs blank): 95%
- Total conc, ppm (lowest total biocide concentration in paint reaching pass level of 75% inhibition) (Chlorella sp., acrylic/silicone paint film on filter paper, three weeks incubation, pass level ≥75% inhibition): 5000 ppm

SMILES: O=c1[nH]c2c(c(=O)n1C1CCCCC1)CCC2 [LENACIL, 3-Cyclohexyl-6,7-dihydro-1H-cyclopentapyrimidine-2,4-(3H,5H)-dione]
- % inhibition (Chlorella, total conc 1′000 ppm in paint, three weeks, colour intensity vs blank): 90%
